# Measurements as given in the supplement of paper PMC10307832.
# Columns and labels:
# Test in all cases: relative viability (nuclei count vs DMSO), 5 days (fraction); higher = more cells survive
# CX-5461 + Lapatinib = compound: Cc1cnc(CNC(=O)c2c(=O)c3ccc(N4CCCN(C)CC4)nc3n3c2sc2ccccc23)cn1 [CX-5461] + CS(=O)(=O)CCNCc1ccc(-c2ccc3ncnc(Nc4ccc(OCc5cccc(F)c5)c(Cl)c4)c3c2)o1 [Lapatinib] (partner 2 µM)
# Procedure, shortened: (§1)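 Five library-drug doses in √10 steps were combined with a fixed anchor-drug dose, or a single drug was given alone, by pin tool to lung cancer cell lines in 1536-well plates the day after seeding. Nuclei were stained and counted after 5 days. Relative viability is the nuclei count in treated wells over that in vehicle wells, taken as the median of duplicate plates.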
# CX-5461 + Pictilisib = compound: Cc1cnc(CNC(=O)c2c(=O)c3ccc(N4CCCN(C)CC4)nc3n3c2sc2ccccc23)cn1 [CX-5461] + CS(=O)(=O)N1CCN(Cc2cc3nc(-c4cccc5[nH]ncc45)nc(N4CCOCC4)c3s2)CC1 [Pictilisib] (partner 1 µM)
# Procedure, shortened: as §1
# IMD-0354 + Lapatinib = compound: O=C(Nc1cc(C(F)(F)F)cc(C(F)(F)F)c1)c1cc(Cl)ccc1O [IMD-0354] + CS(=O)(=O)CCNCc1ccc(-c2ccc3ncnc(Nc4ccc(OCc5cccc(F)c5)c(Cl)c4)c3c2)o1 [Lapatinib] (partner 2 µM)
# Procedure, shortened: as §1
# IMD-0354 + Alpelisib = compound: O=C(Nc1cc(C(F)(F)F)cc(C(F)(F)F)c1)c1cc(Cl)ccc1O [IMD-0354] + Cc1nc(NC(=O)N2CCC[C@H]2C(N)=O)sc1-c1ccnc(C(C)(C)C(F)(F)F)c1 [Alpelisib] (partner 2 µM)
# Procedure, shortened: as §1
Cell Line,relative viability (CX-5461 + Lapatinib; first compound 0.01 µM),relative viability (CX-5461 + Lapatinib; first compound 0.03162 µM),relative viability (CX-5461 + Lapatinib; first compound 0.1 µM),relative viability (CX-5461 + Lapatinib; first compound 0.3162 µM),relative viability (CX-5461 + Lapatinib; first compound 1 µM),relative viability (CX-5461 + Pictilisib; first compound 0.01 µM),relative viability (CX-5461 + Pictilisib; first compound 0.03162 µM),relative viability (CX-5461 + Pictilisib; first compound 0.1 µM),relative viability (CX-5461 + Pictilisib; first compound 0.3162 µM),relative viability (CX-5461 + Pictilisib; first compound 1 µM),relative viability (IMD-0354 + Lapatinib; first compound 0.04 µM),relative viability (IMD-0354 + Lapatinib; first compound 0.1265 µM),relative viability (IMD-0354 + Lapatinib; first compound 0.4 µM),relative viability (IMD-0354 + Lapatinib; first compound 1.265 µM),relative viability (IMD-0354 + Lapatinib; first compound 4 µM),relative viability (IMD-0354 + Alpelisib; first compound 0.04 µM),relative viability (IMD-0354 + Alpelisib; first compound 0.1265 µM),relative viability (IMD-0354 + Alpelisib; first compound 0.4 µM),relative viability (IMD-0354 + Alpelisib; first compound 1.265 µM),relative viability (IMD-0354 + Alpelisib; first compound 4 µM)
HCC-44,0.972,1.01,0.994,1.01,0.69,0.584,0.877,0.492,0.644,0.43,0.976,1.08,0.408,0.23,0.206,0.857,0.728,0.379,0.185,0.134
HCC-827,0.198,0.223,0.22,0.203,0.19,1.16,0.912,1,0.87,1.12,0.195,0.187,0.186,0.168,0.145,0.888,0.978,0.752,0.574,0.216
NCI-H2347,0.941,0.931,0.963,0.524,0.778,0.769,0.697,0.49,0.562,0.665,0.863,0.972,0.632,0.201,0.434,1.05,1.12,0.772,0.498,0.37
PC-14,0.328,0.457,0.304,0.104,0.337,0.788,1.05,0.972,0.583,0.636,0.291,0.384,0.197,0.347,0.109,1.13,0.681,0.587,0.525,0.219
NCI-H1651,–,0.482,–,0.714,0.117,–,0.414,–,0.489,0.105,0.904,0.803,0.402,0.136,0.131,1.17,0.987,0.584,0.266,0.0691
HARA,0.904,0.921,0.84,0.861,0.348,0.634,0.559,0.37,0.497,0.267,0.792,0.752,0.432,0.11,0.198,0.942,0.724,0.503,0.141,0.169
NCI-H1650,0.714,0.714,–,0.229,0.19,0.577,0.593,–,0.206,0.226,0.864,0.757,0.481,0.211,0.184,–,–,–,–,–
NCI-H1793,0.693,0.628,0.819,0.399,0.643,0.202,0.311,0.344,0.212,0.402,0.651,0.613,0.347,0.238,0.323,0.686,0.64,0.34,0.369,0.226
SK-LU-1,0.948,0.837,0.852,0.96,0.535,0.659,0.616,0.602,0.573,0.417,1.07,0.851,0.376,0.47,0.27,1.39,0.658,0.472,0.174,0.215
LU99A,0.859,1.02,0.86,0.56,0.213,0.296,0.312,0.271,0.289,0.173,0.708,0.952,0.604,0.247,0.165,0.517,0.493,0.345,0.247,0.195
NCI-H1355,1.03,0.976,1.15,0.293,0.785,0.469,0.433,0.493,0.163,0.407,1.27,1.16,0.829,0.213,0.21,1.07,0.692,0.736,0.561,0.222
HCC-78,1,0.916,0.734,0.244,0.565,0.187,0.194,0.172,0.252,0.212,1.16,0.889,0.729,0.0878,0.234,0.366,0.345,0.121,0.231,0.192
NCI-H1563,0.889,0.852,0.661,0.683,0.477,0.648,0.662,0.637,0.624,0.528,1.18,1.01,0.903,0.44,0.415,0.875,0.889,0.886,0.726,0.399
HCC-15,0.886,0.914,0.869,0.264,0.605,0.753,0.933,0.749,0.239,0.495,0.837,0.824,0.383,0.241,0.127,0.861,0.853,0.466,0.272,0.0938
LCLC-103H,–,–,–,–,–,0.588,0.611,0.603,0.483,0.619,–,–,–,–,–,0.952,0.998,0.839,0.815,0.397
ChaGo-K-1,–,–,–,–,–,0.938,0.658,0.564,0.35,0.395,–,–,–,–,–,–,–,–,–,–
NCI-H441,–,–,–,–,–,0.376,0.515,0.505,0.382,0.339,–,–,–,–,–,–,0.78,0.398,0.285,0.217
